These results are taken from patent US20110039762A1, “TARGETED ANTIMICROBIAL MOIETIES” (C3 JIAN, INC., priority 2009, published 2011).

One assay relates to E. coli. Nature of the assay: Kill or inhibit growth/proliferation; morphology, biofilm and growth disruption (Tables 5, 6). Further: test concentration or dose not given here. The assay is classed as cell-based, Escherichia coli. Further details: key: A: Peptide aggregates; B: Less hyphal formation; Clumps; Diffuse clumps and small polyps; F: Diffuse growth; H: Thin; I: Growth inhibition; Microcolony formation; Rippled; Small polyps; Thick; W: Halo formation on top, microlonies on bottom.

For assay [1], the system named is microorganisms (e.g., bacteria, yeasts, fungi). Nature of the assay: Targeting peptide binding to target microorganisms (Table 3). The note with it: preferably 1x PBS; for Target(s): microorganism(s) the targeting peptide binds; for Target(s) (microorganisms bound by the targeting peptide): peptide binding in aqueous buffers varied by peptide solubility.
For a further assay, the system named is microorganisms. Nature of the assay: Peptides having multiple activities (targeting/binding, antimicrobial, growth or phenotype altering). From the text:
In certain embodiments, peptides described herein can have multiple activities. Thus for example, a peptide can have both binding/targeting activity and antimicrobial activity. Such peptides can be used, e.g., in a chimeric construct, for any or all of these properties. Thus, for example, a peptide designated “B” in Table 8 can be used as a targeting peptide. If it is also designated G or M it can also be used for antimicrobial activity.

A further assay concerns MRSA. Nature of the assay: Kill or inhibit growth/proliferation; morphology, biofilm and growth disruption (Tables 5, 6). Further: test concentration or dose not given here. Set-up: key: A: Peptide aggregates; B: Less hyphal formation; Clumps; Diffuse clumps and small polyps; F: Diffuse growth; H: Thin; I: Growth inhibition; Microcolony formation; Rippled; Small polyps; Thick; W: Halo formation on top, microlonies on bottom. The assay is classed as cell-based, Methicillin-resistant Staphylococcus aureus.

The next assay concerns E. faecalis. The assay is described as above. Further details: key: A: Peptide aggregates; B: Less hyphal formation; Clumps; Diffuse clumps and small polyps; F: Diffuse growth; H: Thin; I: Growth inhibition; Microcolony formation; Rippled; Small polyps; Thick; W: Halo formation on top, microlonies on bottom. Format: cell-based, Enterococcus faecalis. Further: test concentration or dose not given here.
The test system of another assay is S. epidermidis. Described as above. Set-up: key: A: Peptide aggregates; B: Less hyphal formation; Clumps; Diffuse clumps and small polyps; F: Diffuse growth; H: Thin; I: Growth inhibition; Microcolony formation; Rippled; Small polyps; Thick; W: Halo formation on top, microlonies on bottom. The assay is classed as cell-based, Staphylococcus epidermidis.
For the next assay, the system named is S. pneumoniae. Described as above. Format: cell-based, Streptococcus pneumoniae. Set-up: key: A: Peptide aggregates; B: Less hyphal formation; Clumps; Diffuse clumps and small polyps; F: Diffuse growth; H: Thin; I: Growth inhibition; Microcolony formation; Rippled; Small polyps; Thick; W: Halo formation on top, microlonies on bottom. Further: test concentration or dose not given here.
[2] abbreviates: binding in aqueous buffers depending on peptide solubility.
The mark [3] stands for this setting: peptide binding conducted in aqueous buffers varied by peptide solubility.

Entries after “also recorded” stand apart in the source; their conditions may differ.
Wherever Organism, effect (morphology, biofilm and growth disruption) is given: test concentration or dose not given here.
Wherever Organism, effect is given: test concentration or dose not given here.

For “PF-344: peptide having multiple activities (DERLPEAKAIRNFNGSVMVLGR; Peptide with targeting and/or antimicrobial activity)”, in the assay on E. coli, the “Organism, effect” value is reported as “E. coli (A)”. The “Target(s)” value in assay [1] (setting [2]) is given as “B. subtilis; also recorded: C. jejuni”. The Activities entry with microorganisms is on record as “G B”.

Consider “PF-385: peptide having multiple activities (chain 1 MIKKSILKIKYYVPVLISLTLILSA; chain 2 MIKKSILKIKYYVPVLISLTLILSA; Peptide with targeting and/or antimicrobial activity)”, for which the “Organism, effect” value with E. coli was “E. coli (A)”. Besides, the “Target(s)” value is reported as “S. epidermidis” in assay [1] (setting [2]) and “E. coli; also recorded: P. aeruginosa; also recorded: C. albicans; also recorded: E. faecalis” in assay [1] (setting [3]). The Activities result with microorganisms is recorded as “G B”.

“PF-394: peptide having multiple activities (chain 1 VLKEECYQKN; chain 2 VLKEECYQKN; Peptide with targeting and/or antimicrobial activity)”: the “Organism, effect” value in the assay with MRSA is “MRSA (C)”; in the assay on E. faecalis, “E. faecalis (A)”. Moreover, in assay [1] (setting [3]), the “Target(s)” value was “S. epidermidis and MRSA and C. jejuni”. Also, the Activities result in the assay with microorganisms is recorded as “G B”.

Regarding “PF-407: peptide having multiple activities (KPKNKKEKTVISYEKLLSMY; Peptide with targeting and/or antimicrobial activity)”, the “Organism, effect” value was “S. epidermidis (M)” with S. epidermidis, “MRSA (C)” in the assay on MRSA, “E. faecalis (R)” in the assay with E. faecalis and “S. pneumoniae (R)” with S. pneumoniae. Moreover, in the assay with microorganisms, the Activities entry was “G B”.

Consider “PF-429: peptide having multiple activities (AATLICVGSGIMSSL; Peptide with targeting and/or antimicrobial activity)”, for which the “Organism, effect” value with S. epidermidis is “S. epidermidis (C)”; in the assay with MRSA it was “MRSA (C)”; with E. faecalis it was “E. faecalis (C)”; with S. pneumoniae, “S. pneumoniae (M)”. The “Target(s)” value in assay [1] (setting [3]) is recorded as “S. epidermidis; also recorded: S. pneumoniae; also recorded: C. jeikeium”. In addition, the Activities result in the assay with microorganisms is “G B”.

Turning to “PF-447: peptide having multiple activities (chain 1 IDKSRNKDQFSHIFGLYNICSG; chain 2 IDKSRNKDQFSHIFGLYNICSG; Peptide with targeting and/or antimicrobial activity)”, the “Organism, effect” value is given as “S. epidermidis (C)” in the assay on S. epidermidis, “MRSA (C)” in the assay with MRSA, “E. faecalis (C)” with E. faecalis and “S. pneumoniae (C)” in the assay with S. pneumoniae. In addition, in assay [1] (setting [3]), the “Target(s)” value is listed as “S. epidermidis; also recorded: M. luteus; also recorded: E. coli; also recorded: S. pneumoniae”. The Activities entry in the assay on microorganisms is listed as “G B”.

Regarding “PF-450: peptide having multiple activities (chain 1 HRNLIILQRTIFI; chain 2 HRNLIILQRTIFI; Peptide with targeting and/or antimicrobial activity)”, the “Organism, effect” value with MRSA was “MRSA (C)”; in the assay with E. faecalis, “E. faecalis (C)”; in the assay on S. pneumoniae, “S. pneumoniae (C)”. For the same substance, the Activities result in the assay with microorganisms is on record as “G B”.

Take “PF-541 (RRNLNSPNIKTRKRALKIIKQHQRSK; Peptide with targeting and/or antimicrobial activity)”: the “Organism, effect” value in the assay on E. coli was “E. coli (H)”; in the assay with S. pneumoniae it was “S. pneumoniae (H)”.

For the substance “PF-544: peptide having multiple activities (chain 1 FGEKQMRSWWKVHWFHP; chain 2 FGEKQMRSWWKVHWFHP; Peptide with targeting and/or antimicrobial activity)”, the “Organism, effect” value was “S. epidermidis (D)” with S. epidermidis, “MRSA (D)” with MRSA, “E. faecalis (R)” with E. faecalis and “S. pneumoniae (M)” with S. pneumoniae. Further, the Activities result with microorganisms is listed as “G B”.

With “PF-613: peptide having multiple activities (ADEFAKL; Peptide with targeting and/or antimicrobial activity)”, the “Organism, effect” value in the assay on S. epidermidis is “S. epidermidis (R)”; in the assay with MRSA, “MRSA (C)”; in the assay on E. faecalis it was “E. faecalis (A)”. Further, in assay [1], the “Target(s) (microorganisms bound by the targeting peptide)” value is “C. jeikeium”. The Activities entry with microorganisms is on record as “G B”.

In the case of “PF-616: peptide having multiple activities (IVFVVTKEKK; Peptide with targeting and/or antimicrobial activity)”, the “Organism, effect” value in the assay on S. epidermidis is reported as “S. epidermidis (R)”; in the assay on E. faecalis it was “E. faecalis (A)”. Further, the “Target(s) (microorganisms bound by the targeting peptide)” value in assay [1] was “C. jeikeium”. In addition, the Activities entry in the assay with microorganisms was “G B”.

On to “PF-638: peptide having multiple activities (chain 1 TFILPK; chain 2 TFILPK; Peptide with targeting and/or antimicrobial activity)”, for which the “Organism, effect” value in the assay with S. epidermidis is “S. epidermidis (R)”; in the assay with MRSA, “MRSA (M)”; in the assay with E. faecalis, “E. faecalis (H)”; with S. pneumoniae it was “S. pneumoniae (I)”. Moreover, in assay [1], the “Target(s) (microorganisms bound by the targeting peptide)” value is “S. epidermidis and C. albicans and MRSA and C. jeikeium”. Further, the Activities result in the assay with microorganisms is reported as “G B”.

Consider “PF-643 (chain 1 VRCRL; chain 2 VRCRL; Peptide with targeting and/or antimicrobial activity)”, for which the “Organism, effect” value with MRSA is reported as “MRSA (C)”; in the assay on E. faecalis, “E. faecalis (R)”; in the assay with S. pneumoniae, “S. pneumoniae (R)”. Further, in assay [1], the “Target(s) (microorganisms bound by the targeting peptide)” value is “Mycobacteria spp”.

As to “PF-664: peptide having multiple activities (chain 1 DQLCVEYPARVSTG; chain 2 DQLCVEYPARVSTG; Peptide with targeting and/or antimicrobial activity)”, the “Organism, effect (morphology, biofilm and growth disruption)” value is given as “S. epidermidis (M)” in the assay with S. epidermidis, “MRSA (R)” in the assay with MRSA, “E. faecalis (R)” in the assay with E. faecalis and “S. pneumoniae (M)” in the assay with S. pneumoniae. For the same substance, the “Target(s) (microorganisms bound by the targeting peptide)” value in assay [1] is listed as “M. smegmatis”. Further, the Activities result with microorganisms is given as “G B”.

Regarding “PF-667 (chain 1 PAHQRLRIDQRLVADRDMVQDYES; chain 2 PAHQRLRIDQRLVADRDMVQDYES; Peptide with targeting and/or antimicrobial activity)”, the “Organism, effect (morphology, biofilm and growth disruption)” value is reported as “S. epidermidis (R)” in the assay on S. epidermidis, “MRSA (R)” in the assay on MRSA, “E. faecalis (R)” in the assay on E. faecalis and “S. pneumoniae (R)” in the assay with S. pneumoniae. The “Target(s) (microorganisms bound by the targeting peptide)” value in assay [1] was “Mycobacteria spp”.

Consider “PF-677 (chain 1 TCRGAGMH; chain 2 TCRGAGMH; Peptide with targeting and/or antimicrobial activity)”, for which the “Organism, effect (morphology, biofilm and growth disruption)” value is recorded as “S. epidermidis (R)” in the assay on S. epidermidis, “MRSA (D)” with MRSA, “E. faecalis (R)” with E. faecalis and “S. pneumoniae (D)” with S. pneumoniae. Also, the “Target(s) (microorganisms bound by the targeting peptide)” value in assay [1] is recorded as “Mycobacteria spp”.

Consider “PF-690 (chain 1 MIPLAGDPVSSHRTVEFGVLGTYLVSGGSL; chain 2 MIPLAGDPVSSHRTVEFGVLGTYLVSGGSL; Peptide with targeting and/or antimicrobial activity)”, for which the “Organism, effect (morphology, biofilm and growth disruption)” value with S. epidermidis was “S. epidermidis (R)”; in the assay with MRSA, “MRSA (R)”; in the assay on E. faecalis, “E. faecalis (R)”; in the assay on S. pneumoniae it was “S. pneumoniae (M)”. In addition, the “Target(s) (microorganisms bound by the targeting peptide)” value in assay [1] is reported as “Mycobacteria spp”.

For “PF-695 (chain 1 ALSVMLGNIPLVVPNANQL; chain 2 ALSVMLGNIPLVVPNANQL; Peptide with targeting and/or antimicrobial activity)”, the “Organism, effect (morphology, biofilm and growth disruption)” value with MRSA is “MRSA (R)”; in the assay with E. faecalis it was “E. faecalis (R)”; with S. pneumoniae, “S. pneumoniae (C)”. In assay [1], the “Target(s) (microorganisms bound by the targeting peptide)” value was “Mycobacteria spp”.
